Data set [1] concerns the target T1, human orexin 1 receptors (Homo sapiens, UniProt O43613).
T1 construct: expressed in transfected cells; host or cells: CHO cells (membrane preparation)
T1 sequence (O43613 1-425): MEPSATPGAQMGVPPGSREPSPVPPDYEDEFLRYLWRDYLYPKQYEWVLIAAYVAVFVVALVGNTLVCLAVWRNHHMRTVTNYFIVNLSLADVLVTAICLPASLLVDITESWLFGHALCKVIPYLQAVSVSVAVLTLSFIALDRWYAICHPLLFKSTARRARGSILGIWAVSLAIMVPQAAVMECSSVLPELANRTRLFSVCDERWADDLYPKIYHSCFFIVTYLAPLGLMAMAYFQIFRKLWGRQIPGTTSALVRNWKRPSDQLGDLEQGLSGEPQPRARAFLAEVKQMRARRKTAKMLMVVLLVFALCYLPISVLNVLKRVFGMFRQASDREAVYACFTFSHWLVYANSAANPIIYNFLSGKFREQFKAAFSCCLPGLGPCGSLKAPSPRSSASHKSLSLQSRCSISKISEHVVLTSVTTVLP
The data set can be described thus: in vitro binding: displacement of radio-iodinated orexin A on CHO cell membrane preparation. To be noted: membrane preparation of CHO cells expressing human orexin 1 receptors, read-out: IC50 OX 1; for IC50: unit μM. The protocol: (§1) They were in particular tested as regards their effects. […] This method consists in studying the displacement of radio-iodinated orexin A bound to human orexin 2 receptors expressed in CHO cells. The test is performed on membranes in a Hepes 50 mM, MgCl2 1 mM, CaCl2 25 mM, NaN3 0.025%, bovine serum albumin (BSA) 1% incubation buffer and 100 pM of ligand, for 30 minutes at 25° C. The reaction is quenched by filtration and washing on a Whatman GF/C filter. The non-specific binding is measured in the presence of 10^−6M of human orexin B. The IC50 values (concentration that inhibits 50% of the binding of the radio-iodinated orexin A to its receptors) are low, less than 300 nM, in particular less than 100 nM and more particularly less than 30 nM. The affinity of the compounds according to the invention for the orexin 1 receptors was also studied in a test of in vitro binding according to the same technique using radio-iodinated orexin A as ligand in a membrane preparation of CHO cells expressing the human orexin 1 receptors. The compounds according to the invention show little or no affinity for the orexin 1 receptors.

For data set [2], the target named is T2, orexin 2 receptors (Homo sapiens, UniProt O43614).
T2 sequence (O43614 1-444): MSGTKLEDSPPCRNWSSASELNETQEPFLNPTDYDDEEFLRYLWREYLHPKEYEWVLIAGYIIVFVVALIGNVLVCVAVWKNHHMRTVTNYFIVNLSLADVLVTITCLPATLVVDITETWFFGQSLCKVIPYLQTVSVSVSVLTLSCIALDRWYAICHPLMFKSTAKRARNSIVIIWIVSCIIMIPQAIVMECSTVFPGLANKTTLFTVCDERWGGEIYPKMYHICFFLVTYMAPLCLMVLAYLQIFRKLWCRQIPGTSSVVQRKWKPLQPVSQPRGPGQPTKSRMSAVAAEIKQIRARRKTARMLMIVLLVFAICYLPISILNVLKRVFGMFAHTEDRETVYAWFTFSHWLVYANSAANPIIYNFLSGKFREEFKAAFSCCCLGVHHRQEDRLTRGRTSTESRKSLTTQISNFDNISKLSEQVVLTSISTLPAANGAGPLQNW
The data set can be described thus: measurement of intracellular calcium (FLIPR), antagonist test against orexin B. In kind it is cell-based. To be noted: 30 minutes preincubation before addition of 0.25 nM orexin B, Fluo-4 AM, read-out: Measurement of [Ca^2+]i IC50 OX 2 - FLIPR. The protocol: The agonist or antagonist nature of the compounds is determined in vitro in a test of measurement of intracellular calcium (FLIPR) on a cell preparation expressing the orexin 2 receptors, according to the general technique described in Sullivan et al., Methods Mol. Biol., 1999, vol. 114, 125-133, using 1 μM of Fluo-4 AM as fluorescent calcium indicator.

Data set [3] addresses T2, orexin 2 receptors. The data set can be described thus: in vitro binding: displacement of radio-iodinated orexin A on CHO cell membranes. To be noted: human orexin 2 receptors in CHO cell membranes, 100 pM ligand, 30 minutes at 25° C., read-out: IC50 OX 2. More on the design: expressed in transfected cells; host or cells: CHO cells (membranes). The protocol:
as §1, with “nM.” for “nM. The affinity of the compounds according to the invention for the orexin 1 receptors was also studied in a test of in vitro binding according to the same technique using radio-iodinated orexin A as ligand in a membrane preparation of CHO cells expressing the human orexin 1 receptors. The compounds according to the invention show little or no affinity for the orexin 1 receptors.”

pIC50: −log10 of the molar value. Where two headings read alike, the source gives them in different places. Bounds are passed on as bounds.

As for `CNC(=O)CN(c1ccc(Cl)cc1N(C)c1ccccc1)S(=O)(=O)c1ccc(OC)c(OC)c1` [Compound 124, N^2-{4-chloro-2-[methyl(phenyl)amino]phenyl}-N^2-[(3,4-dimethoxyphenyl)sulfonyl]-N^1-methylglycinamide], in data set [1], the IC50 is greater than 10 µM. Further, the pIC50 is 7.19 in data set [2] and 7.30 in data set [3].

Take `COc1ccc(S(=O)(=O)N(Cc2nnn(C)n2)c2ccc(Cl)cc2C(O)c2ccccc2Cl)cc1OC` (centres unmarked) [Compound 14, N-{4-chloro-2-[(2-chlorophenyl)(hydroxy)methyl]phenyl}-3,4-dimethoxy-N-[(2-methyl-2H-tetrazol-5-yl)methyl]benzenesulfonamide]: the melting point worked out at 94.8 °C.

As for `Cc1ccc(S(=O)(=O)N(CC(N)=O)c2ccc(Cl)cc2C(O)c2ccccc2Cl)cc1C` (centres unmarked) [Compound 28, N^2-{4-chloro-2-[(2-chlorophenyl)(hydroxy)methyl]phenyl}-N^2-[(3,4-dimethylphenyl)sulfonyl]glycinamide], the pIC50 in data set [1] is 5.82; in data set [2], 7.72; in data set [3], 7.21.

On to `COc1ccc(S(=O)(=O)N(CC(N)=O)c2ccc(Cl)cc2N(C)c2ccccc2)cc1OC` [Compound 92, N^2-{4-chloro-2-[methyl(phenyl)amino]phenyl}-N^2-[(3,4-dimethoxyphenyl)sulfonyl]glycinamide], for which the melting point stood at 192.5 °C.

In the case of `CNC(=O)CN(c1ccc(Cl)cc1C(C)c1ccccc1Cl)S(=O)(=O)c1ccc(OC)c(OC)c1` (centres unmarked) [Compound 187, N^2-{4-chloro-2-[1-(2-chlorophenyl)ethyl]phenyl}-N^2-[(3,4-dimethoxyphenyl)sulfonyl]-N^1-methylglycinamide], the melting point is 151 °C.

As for `COc1ccc(N(CC(N)=O)S(=O)(=O)c2ccc(OC)c(OC)c2)c(Cc2ccccc2Cl)c1` [Compound 138, N^2-[2-(2-Chlorobenzyl)-4-methoxyphenyl]-N^2-[(3,4-dimethoxyphenyl)sulfonyl]glycinamide], the melting point was 184.6 °C. Moreover, the pIC50 in data set [1] was 5.32. For the same molecule, the pIC50 in data set [2] was 7.96. The pIC50 in data set [3] was 8.10.

`COc1ccc(S(=O)(=O)N(CC(N)=O)c2c(OC)cccc2-c2ccccc2)cc1OC` [Compound 312, N˜2˜-[(3,4-dimethoxyphenyl)sulfonyl]-N˜2˜-(3-methoxybiphenyl-2-yl)glycinamide] came in with a melting point of 86.8 °C.

`COc1ccc(S(=O)(=O)N(CC(N)=O)c2cc(N(C)C)ccc2Cc2c(F)cccc2F)cc1OC` [Compound 202, N^2-[2-(2,6-difluorobenzyl)-5-(dimethylamino)phenyl]-N^2-[(3,4-dimethoxyphenyl)sulfonyl]glycinamide]: the values for the pIC50 in data set [1], in data set [2] and in data set [3] were 5.73, 8.15 and 8.05, respectively.

The molecule `COc1ccc(S(=O)(=O)N(CC(N)=O)c2cc(Cl)ccc2Cc2ccccc2Cl)cc1OC` [Compound 179, N^2-[5-Chloro-2-(2-chlorobenzyl)phenyl]-N^2-[(3,4-dimethoxyphenyl)sulfonyl]glycinamide] returned a melting point of 86.4 °C.

The molecule `COc1ccc(S(=O)(=O)N(Cc2nnnn2C)c2ccc(Cl)cc2Cc2c(F)cccc2F)cc1OC` [Compound 152, N-[4-chloro-2-(2,6-difluorobenzyl)phenyl]-3,4-dimethoxy-N-[(1-methyl-1H-tetrazol-5-yl)methyl]benzenesulfonamide] came in with a melting point of 180.8 °C.

The molecule `COC(=O)CN(c1ccc(Cl)cc1C(O)c1ccccc1Cl)S(=O)(=O)c1ccc(OC)c(OC)c1` (centres unmarked) [Compound 21, Methyl N-{4-chloro-2-[(2-chlorophenyl)(hydroxy)methyl]phenyl}-N-[(3,4-dimethoxyphenyl)sulfonyl]glycinate] gave a melting point of 158.5 °C.

As for `COc1cccc(S(=O)(=O)N(CC(N)=O)c2ccc(Cl)cc2C(O)c2ccccc2Cl)c1` (centres unmarked) [Compound 30], the pIC50 is 6.02 in data set [1], 7.59 in data set [2] and 7.09 in data set [3].

As for `COc1ccc(S(=O)(=O)N(Cc2nccn2C)c2ccc(Cl)cc2Cc2ccccc2Cl)cc1OC` [Compound 107, N-[4-chloro-2-(2-chlorobenzyl)phenyl]-3,4-dimethoxy-N-[(1-methyl-1H-imidazol-2-yl)methyl]benzenesulfonamide], the pIC50 in data set [1] is 6.05; in data set [2] it was 7.96; in data set [3], 7.70.

With `COc1ccc(S(=O)(=O)N(CC(N)=O)c2ccc(Cl)cc2C(O)c2cccc(Cl)c2)cc1OC` (centres unmarked) [Compound 44, N^2-{4-chloro-2-[(3-chlorophenyl)(hydroxy)methyl]phenyl}-N^2-[(3,4-dimethoxyphenyl)sulfonyl]glycinamide], in data set [1], the IC50 is greater than 10 µM. Further, the pIC50 is 7.27 in data set [2] and 7.07 in data set [3].

In the case of `CNC(=O)CN(c1ccc(Cl)cc1C(O)c1ccccc1)S(=O)(=O)c1ccc(OC)c(OC)c1` (centres unmarked) [Compound 137, N^2-{4-chloro-2-[hydroxy(phenyl)methyl]phenyl}-N^2-[(3,4-dimethoxyphenyl)sulfonyl]-N^1-methylglycinamide], the IC50 in data set [1] is greater than 10 µM. Besides, the figures for the pIC50 in data set [2] and in data set [3] were 8.00 and 7.72, respectively.

On to `CCOC(=O)CN(c1ccc(Cl)cc1C(O)c1ccccc1Cl)S(=O)(=O)c1ccc(OC)c(OC)c1` (centres unmarked) [Compound 1, Ethyl N-{4-chloro-2-[(2-chlorophenyl)(hydroxy)methyl]phenyl}-N-[(3,4-dimethoxyphenyl)sulfonyl]glycinate], for which the pIC50 in data set [1] was 6.35; in data set [2], 8.30; in data set [3], 7.89.

The IC50 is the point on the concentration scale where inhibition reaches its midpoint. As a reminder, the pIC50 is the IC50 on a negative log10 scale, so that one unit is a factor of ten. As usually defined, the melting point is the temperature of the solid-liquid transition.

Values taken from patent US7396958B2, “Sulphonamide derivatives, their preparation and their therapeutic application” (Sanofi Aventis, priority 2004, dated 2008).
